Experimental findings from patent publication US20040034104A1, “2,2-Diphenylbutanamide derivatives and medicines containing the same” (priority 2000, published 2004) are described below.

The melting point is the temperature, or range, at which the solid turns liquid.

System in one series: not given
Assay: not given
Details: not given
Compound `CN(C)C(=O)C(CCN1CCC(c2ccccc2OC(C)(C)C(=O)O)CC1)(c1ccccc1)c1ccccc1` returned a melting point of 156 to 158 °C.
The same measure, in the same setting: for `CCOC(=O)COc1ccccc1C1=CCN(CCC(C(=O)N(C)C)(c2ccccc2)c2ccccc2)CC1` the value was 147 °C; for `CN(C)C(=O)C(CCN1CC=C(c2ccccc2OCC(=O)O)CC1)(c1ccccc1)c1ccccc1`, 135 °C; for `O=C(O)COc1ccccc1C1CCN(CCC(C(=O)N2CCCC2)(c2ccccc2)c2ccccc2)CC1`, 239 °C.
Consider `CN(C)C(=O)C(CCN1CCC(c2ccccc2OCC(=O)O)CC1)(c1ccccc1)c1ccccc1`, for which the melting point is 202 °C.

For another series, the system named is opioid receptor (μ-opioid). Briefly: Opioid receptor agonist activity in guinea pig ileum longitudinal muscle specimens. The settings on record: agonist activity relative to DAMGO (=1.0); ileum longitudinal muscle specimens with Auerbach's plexus; method of Oka et al. As to the method: Hartley male guinea pigs (body weight: about 500 g) wer employed. The ileum (15-30 cm) was removed from the ileocecum of each guinea pig, to thereby prepare longitudinal muscle specimens having Auerbach's plexus. Opioid receptor activity of the test drugs was measured through a method proposed by Oka et al. (Eur. J. Pharmacol., 77; 137-141, 1982). Agonist activity is represented by the efficacy relative to the activity of DAMGO ([D-Ala^2, N-MePhe^4, Gly^5-ol]-enkephalin), which is a selective μ-opioid agonist.
In the case of `C[C@@H](NC(=O)[C@@H](N)Cc1ccc(O)cc1)C(=O)NCC(=O)N(C)[C@@H](Cc1ccccc1)C(=O)NCCO` [DAMGO, [D-Ala^2, N-MePhe^4, Gly^5-ol]-enkephalin, reference compound], the Relative potency came to 1.0.
`CN(C)C(=O)C(CCN1CCC(c2ccccc2OCCO)CC1)(c1ccccc1)c1ccccc1` [Compound No. 69, 4-[4-[2-(2-hydroxyethoxy)phenyl]piperidin-1-yl]-N,N-dimethyl-2,2-diphenylbutanamide]: the Relative potency stood at 10.
For `CN(C)C(=O)C(CCN1CCN(c2ccccc2OCCO)CC1)(c1ccccc1)c1ccccc1` [Compound No. 43, 4-[4-[2-(2-hydroxyethoxy)phenyl]piperazin-1-yl]-N,N-dimethyl-2,2-diphenylbutanamide], the Relative potency turned out to be 20.
Same read-out and setting: in the case of `CN(C)C(=O)C(CCN1CCN(c2ccccc2OCC(=O)O)CC1)(c1ccccc1)c1ccccc1` [compound 45] it was 20.
Same read-out and setting: for `CN(C)C(=O)C(CCN1CCN(c2ccccc2O)CC1)(c1ccccc1)c1ccccc1` [Compound No. 36, 4-[4-(2-Hydroxyphenyl)piperazin-1-yl]-N,N-dimethyl-2,2-diphenylbutanamide] the value was 10.
